{"source": "PubChem BioAssay AID977614", "about": "(Broad Institute, 2014)", "test_system": "L. donovani amastigotes in THP-1 macrophages, DAPI imaging, 72 h", "assay": "antileishmanial activity in infected macrophages – imaging, THP-1 host macrophages, single concentration (AID 977614);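 also: signal is the parasite per host cell ratio from DAPI stained kinetoplasts and nuclei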", "note": "The source made the active and inactive calls.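 The calls were made as follows: active = parasite count per well reduced by over 3 SD from the mean, with host cell number above 80% of untreated; inactive = the rest.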", "data": [{"smiles": "CCC(=O)N(CC(C)C)C[C@@H]1[C@@H](c2ccccc2)[C@H](CO)N1C(=O)C1CCC1", "values": [{"measurement": "AC50", "value": "> 10 µM (inactive)"}]}, {"smiles": "O=C(CC(F)(F)F)N1C[C@H]2[C@@H](c3ccccc31)[C@@H](CO)N2CC1CCOCC1", "values": [{"measurement": "AC50", "value": "> 10 µM (inactive)"}]}, {"smiles": "COCCN(C[C@H]1N[C@H](CO)[C@@H]1c1ccccc1)C(=O)NC1CCCC1", "values": [{"measurement": "AC50", "value": "> 10 µM (inactive)"}]}, {"smiles": "O=C(Nc1cccc(F)c1)N1C[C@@H]2[C@H](c3ccccc31)[C@H](CO)N2C(=O)Cc1ccccn1", "values": [{"measurement": "AC50", "value": "> 10 µM (inactive)"}]}, {"smiles": "Cc1ccc(S(=O)(=O)N2C[C@@H]3[C@H](c4ccccc42)[C@@H](CO)N3Cc2cccnc2)cc1", "values": [{"measurement": "AC50", "value": "> 10 µM (inactive)"}]}, {"smiles": "C/C=C/c1ccc([C@H]2[C@@H](CO)N(C(=O)CC)[C@@H]2CN(C(=O)C2CC2)C(C)C)cc1", "values": [{"measurement": "AC50", "value": "> 10 µM (inactive)"}]}, {"smiles": "C/C=C/c1ccc([C@H]2[C@@H](CO)N(CC3CCCC3)[C@H]2CNS(C)(=O)=O)cc1", "values": [{"measurement": "AC50", "value": "> 10 µM (inactive)"}]}, {"smiles": "CN1C[C@@H]2[C@H](c3ccccc31)[C@H](CO)N2Cc1ccccc1Cl", "values": [{"measurement": "AC50", "value": "> 10 µM (inactive)"}]}, {"smiles": "CNC[C@@H]1OCc2cnnn2CCCC(=O)N([C@H](C)CO)C[C@@H]1C", "values": [{"measurement": "AC50", "value": "> 10 µM (inactive)"}]}, {"smiles": "CCN(C[C@H]1[C@H](c2ccc(-c3cccnc3)cc2)[C@H](CO)N1C(C)=O)C(C)=O", "values": [{"measurement": "AC50", "value": "> 10 µM (inactive)"}]}, {"smiles": "O=C(c1ccccc1F)N1C[C@H]2[C@@H](c3ccccc31)[C@@H](CO)N2C(=O)Nc1ccccc1", "values": [{"measurement": "AC50", "value": "> 10 µM (inactive)"}]}, {"smiles": "O=C(Cc1ccccc1)N1C[C@H]2[C@@H](c3ccccc31)[C@@H](CO)N2S(=O)(=O)c1ccccc1", "values": [{"measurement": "AC50", "value": "> 10 µM (inactive)"}]}, {"smiles": "OC[C@H]1[C@@H]2c3ccccc3NC[C@@H]2N1Cc1ccccc1Cl", "values": [{"measurement": "AC50", "value": "> 10 µM (inactive)"}]}, {"smiles": "CC(=O)N1[C@H](CO)[C@@H](c2ccccc2)[C@H]1CN(CC1CCC1)C(=O)CN(C)C", "values": [{"measurement": "AC50", "value": "> 10 µM (inactive)"}]}, {"smiles": "CC(=O)N1[C@H](CO)[C@@H](c2ccccc2)[C@@H]1CN(CC1CCC1)C(=O)CN(C)C", "values": [{"measurement": "AC50", "value": "> 10 µM (inactive)"}]}, {"smiles": "CC(=O)N1[C@@H]2CN(S(=O)(=O)c3ccccc3C)c3ccccc3[C@@H]2[C@@H]1CO", "values": [{"measurement": "AC50", "value": "> 10 µM (inactive)"}]}, {"smiles": "COc1cccc(C(=O)N2C[C@@H]3[C@H](c4ccccc42)[C@H](CO)N3C(=O)c2cccc(F)c2)c1", "values": [{"measurement": "AC50", "value": "> 10 µM (inactive)"}]}, {"smiles": "COc1ccc(C(=O)N2C[C@@H]3[C@H](c4ccccc42)[C@@H](CO)N3Cc2ccccc2Cl)cc1", "values": [{"measurement": "AC50", "value": "> 10 µM (inactive)"}]}, {"smiles": "O=C(NC[C@H]1[C@H](c2ccccc2)[C@@H](CO)N1C(=O)C1CCC1)NC1CCCC1", "values": [{"measurement": "AC50", "value": "> 10 µM (inactive)"}]}, {"smiles": "Cc1cccc(S(=O)(=O)N2C[C@H]3[C@@H](c4ccccc42)[C@@H](CO)N3C(=O)c2ccccc2)c1", "values": [{"measurement": "AC50", "value": "> 10 µM (inactive)"}]}, {"smiles": "COc1ccc(CN2[C@@H](CO)[C@@H]3c4ccccc4N(C(=O)NC(C)C)C[C@@H]32)cc1", "values": [{"measurement": "AC50", "value": "> 10 µM (inactive)"}]}, {"smiles": "C/C=C/c1ccc([C@@H]2[C@@H](CNC(=O)CC3CC3)N(C(=O)CC)[C@H]2CO)cc1", "values": [{"measurement": "AC50", "value": "> 10 µM (inactive)"}]}, {"smiles": "CC(C)NC(=O)N1[C@H](CNC(=O)CN(C)C)[C@H](c2ccccc2)[C@@H]1CO", "values": [{"measurement": "AC50", "value": "> 10 µM (inactive)"}]}, {"smiles": "C[C@H](CO)N1C[C@H](C)[C@H](CN(C)S(=O)(=O)c2ccc(Oc3ccccc3)nc2)OCc2cnnn2CCCC1=O", "values": [{"measurement": "AC50", "value": "> 10 µM (inactive)"}]}, {"smiles": "CNC[C@@H]1OCc2cn(nn2)CCCC(=O)N([C@@H](C)CO)C[C@H]1C", "values": [{"measurement": "AC50", "value": "> 10 µM (inactive)"}]}, {"smiles": "O=C(C1CCCCC1)N1[C@@H]2CNc3ccccc3[C@@H]2[C@@H]1CO", "values": [{"measurement": "AC50", "value": "> 10 µM (inactive)"}]}, {"smiles": "CCC(=O)NC[C@@H]1[C@@H](c2ccc(-c3ccc(F)cc3)cc2)[C@@H](CO)N1C(=O)CC", "values": [{"measurement": "AC50", "value": "> 10 µM (inactive)"}]}, {"smiles": "CCC(=O)N1C[C@H]2[C@@H](c3ccccc31)[C@@H](CO)N2Cc1ccc(F)cc1", "values": [{"measurement": "AC50", "value": "> 10 µM (inactive)"}]}, {"smiles": "COc1cccc(NC(=O)N2[C@H](CO)[C@@H](c3ccccc3)[C@H]2CNCC(C)C)c1", "values": [{"measurement": "AC50", "value": "> 10 µM (inactive)"}]}, {"smiles": "C/C=C/c1ccc([C@H]2[C@@H](CNC(=O)NC(C)C)N(C(=O)C3CC3)[C@H]2CO)cc1", "values": [{"measurement": "AC50", "value": "> 10 µM (inactive)"}]}, {"smiles": "COCC(=O)N1C[C@H]2[C@@H](c3ccccc31)[C@@H](CO)N2C(=O)c1ccccc1F", "values": [{"measurement": "AC50", "value": "> 10 µM (inactive)"}]}]}
